Measured values: ChEMBL document CHEMBL1201862, “PubChem BioAssay data set” (2004)
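Protocol summary: plate cells (96-well), add compound at 5 concentrations, incubate 48 h, interpolate endpoints linearly. Abbreviation: GI50, concentration required for 50% inhibition of growth.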 The source made the active and inactive calls. Rule as the data show it: active = GI50 up to about 1.1 µM and inactive = higher.

Key:
Test in all cases: NCI anticancer screen, dose series, 48 h
[1] = system: 786-0
[2] = system: CCRF-CEM
[3] = system: DU-145
[4] = system: HCT-15
[5] = system: HOP-92
[6] = system: LOX IMVI
[7] = system: MCF7
[8] = system: MDA-MB-231
[9] = system: MDA-N
[10] = system: NCI/ADR-RES
[11] = system: OVCAR-3
[12] = system: OVCAR-4
[13] = system: SF-539
[14] = system: SK-MEL-28
[15] = system: SN12C
[16] = system: SNB-19
[17] = system: SNB-75
[18] = system: SW-620
[19] = system: T47D
[20] = system: SK-OV-3

| Structure (SMILES) | GI50 [1] | GI50 [2] | GI50 [3] | GI50 [4] [µM] | GI50 [5] | GI50 [6] | GI50 [7] | GI50 [8] | GI50 [9] | GI50 [10] | GI50 [11] | GI50 [12] | GI50 [13] | GI50 [14] | GI50 [15] | GI50 [16] | GI50 [17] | GI50 [18] | GI50 [19] | GI50 [20] |
| --- | --- | --- | --- | --- | --- | --- | --- | --- | --- | --- | --- | --- | --- | --- | --- | --- | --- | --- | --- | --- |
| CC(C)C(OC(=O)c1ccc(NCc2cc(O)ccc2O)cc1)C(C)C | 1.14 µM (inactive) | 0.102 µM (active) | 7.01 µM (inactive) | 0.317 | 0.424 µM (active) | 0.776 µM (active) | 2.87 µM (inactive) | 2.07 µM (inactive) | 2.39 µM (inactive) | 1.42 µM (inactive) | 1.36 µM (inactive) | 1.47 µM (inactive) | 1.09 µM (active) | 1.45 µM (inactive) | 2.42 µM (inactive) | 1.29 µM (inactive) | 0.746 µM (active) | 1.96 µM (inactive) | 0.871 µM (active) |  |
| Cc1ccccc1-n1c(=O)c2ncn(C3CCCO3)c2n(-c2ccccc2C)c1=S (configuration not stated) | > 100 µM (inactive) | > 100 µM (inactive) | > 100 µM (inactive) | > 100 | > 100 µM (inactive) | > 100 µM (inactive) | > 100 µM (inactive) | > 100 µM (inactive) | > 100 µM (inactive) | > 100 µM (inactive) | > 100 µM (inactive) | > 10 µM (inactive) | > 100 µM (inactive) |  | > 100 µM (inactive) | > 100 µM (inactive) | 79.4 µM (inactive) | > 100 µM (inactive) | > 100 µM (inactive) | > 100 µM (inactive) |
| N#C/N=C(/NCc1ccccc1)N(Cc1ccccc1)Cc1ccccc1 | 23.2 µM (inactive) | 16.1 µM (inactive) | 63 µM (inactive) | 20.7 | 24.6 µM (inactive) | 19.2 µM (inactive) | 36.1 µM (inactive) | 18.3 µM (inactive) | 46.7 µM (inactive) | 30.3 µM (inactive) | 22.6 µM (inactive) | 23.8 µM (inactive) | 23.7 µM (inactive) | 27.5 µM (inactive) | 25.2 µM (inactive) | > 89.1 µM (inactive) |  | 64 µM (inactive) | 35 µM (inactive) | > 10 µM (inactive) |
| O=C(Nc1ccccc1)c1cc(S(=O)(=O)N2CCNNC2=O)c(S)cc1Cl | 47.6 µM (inactive) | 71.9 µM (inactive) | 90.4 µM (inactive) | 59.2 | 47.3 µM (inactive) | 43.7 µM (inactive) | > 100 µM (inactive) | 39 µM (inactive) | > 100 µM (inactive) | 34.7 µM (inactive) | > 100 µM (inactive) | > 100 µM (inactive) | > 100 µM (inactive) | > 100 µM (inactive) | > 100 µM (inactive) | > 100 µM (inactive) | > 100 µM (inactive) | 33 µM (inactive) | 44.5 µM (inactive) |  |
| Nc1cc(CO)cc(Nc2c3ccccc3nc3ccccc23)c1 | 16.7 µM (inactive) | 6.78 µM (inactive) | 27.3 µM (inactive) | 17.6 |  | 16.7 µM (inactive) | 15.5 µM (inactive) | 12.1 µM (inactive) | 20.6 µM (inactive) | 17.7 µM (inactive) | 18.2 µM (inactive) | 16 µM (inactive) | 17.6 µM (inactive) | 17.8 µM (inactive) | 18.9 µM (inactive) |  | 15.8 µM (inactive) | 12.8 µM (inactive) | 18.4 µM (inactive) | 16 µM (inactive) |
| O=C(O)C1(Nc2ccc(Cl)cc2)CCCC1 | > 100 µM (inactive) | > 100 µM (inactive) | > 100 µM (inactive) | 11.5 | > 100 µM (inactive) | > 100 µM (inactive) | > 100 µM (inactive) | > 100 µM (inactive) | > 100 µM (inactive) | > 100 µM (inactive) | > 100 µM (inactive) | > 100 µM (inactive) |  | > 100 µM (inactive) | > 100 µM (inactive) | > 100 µM (inactive) | > 100 µM (inactive) | > 100 µM (inactive) | > 100 µM (inactive) | > 100 µM (inactive) |
| NC(Cn1ccc(=O)c(O)c1)C(=O)O (configuration not stated) [MIMOSINE] | > 100 µM (inactive) | 33.7 µM (inactive) | > 100 µM (inactive) | > 100 | > 100 µM (inactive) | > 100 µM (inactive) | > 100 µM (inactive) | > 100 µM (inactive) | > 100 µM (inactive) | > 100 µM (inactive) | > 100 µM (inactive) | > 100 µM (inactive) | > 100 µM (inactive) | > 100 µM (inactive) | > 100 µM (inactive) | > 100 µM (inactive) |  | > 100 µM (inactive) | > 100 µM (inactive) | > 100 µM (inactive) |
| COc1ccc([C@H]2C=C(c3cc(F)c(Cl)cc3Cl)N=c3s/c(=C\c4ccc(-c5ccc(Cl)cc5Cl)o4)c(=O)n32)cc1 | 42.4 µM (inactive) |  | 71 µM (inactive) | 33.8 | 31.6 µM (inactive) | 38 µM (inactive) | 26.9 µM (inactive) | 25.5 µM (inactive) | 28.1 µM (inactive) | 44.5 µM (inactive) |  | 37.3 µM (inactive) | 34.6 µM (inactive) | > 100 µM (inactive) | 47.8 µM (inactive) | 31.9 µM (inactive) | 38.4 µM (inactive) | 51.1 µM (inactive) | 19.6 µM (inactive) | 21.5 µM (inactive) |
| CCOC(=O)[C@@H]1ON2O[C@@H](OC3CCCC3(c3ccccc3)c3ccccc3)C[C@H]3OC(=O)[C@@H]1C32 (some centres not stated) | 30.2 µM (inactive) | 27.5 µM (inactive) | 22.6 µM (inactive) | 31 | 64.6 µM (inactive) | 37.8 µM (inactive) | 20.8 µM (inactive) | 25.2 µM (inactive) | 20.7 µM (inactive) | 34.4 µM (inactive) | 23.4 µM (inactive) |  | 24.9 µM (inactive) |  | 32.8 µM (inactive) |  | 32.4 µM (inactive) | 24.7 µM (inactive) | 22.3 µM (inactive) | 86.5 µM (inactive) |
| CC(=O)Nc1ccc(Nc2cc(O)nc(O)n2)cc1 | > 100 µM (inactive) |  | > 100 µM (inactive) | > 100 | > 100 µM (inactive) | > 100 µM (inactive) | > 100 µM (inactive) | > 100 µM (inactive) | > 100 µM (inactive) | > 100 µM (inactive) | > 100 µM (inactive) | > 100 µM (inactive) | > 100 µM (inactive) | > 100 µM (inactive) | > 100 µM (inactive) | > 100 µM (inactive) | > 100 µM (inactive) | > 100 µM (inactive) | 14.1 µM (inactive) |  |
| O=C(Nc1ccccc1)N1N=C(c2ccccc2)C1c1ccccc1 (configuration not stated) | 16.4 µM (inactive) |  | > 100 µM (inactive) | 33.8 | 23.4 µM (inactive) | 29.9 µM (inactive) | 20.2 µM (inactive) | 62.1 µM (inactive) | 27.4 µM (inactive) | 26.4 µM (inactive) | 20.7 µM (inactive) | 41.1 µM (inactive) | 14.9 µM (inactive) | 53.7 µM (inactive) | 48 µM (inactive) | 27.7 µM (inactive) | 15.8 µM (inactive) | 35.8 µM (inactive) | 59.6 µM (inactive) | 90.8 µM (inactive) |
| O=C1C2Cc3c(n(C(=O)c4ccccc4)c4ccccc34)CC2C(=O)N1c1ccc(Nc2ccc(N3C(=O)C4Cc5c(n(C(=O)c6ccccc6)c6ccccc56)CC4C3=O)cc2)cc1 (configuration not stated) | > 100 µM (inactive) | 40.4 µM (inactive) | > 100 µM (inactive) | > 100 | 46 µM (inactive) | > 100 µM (inactive) | > 100 µM (inactive) | 24.3 µM (inactive) | > 100 µM (inactive) | > 100 µM (inactive) | > 100 µM (inactive) | > 100 µM (inactive) |  | > 100 µM (inactive) | > 100 µM (inactive) | > 100 µM (inactive) | > 100 µM (inactive) |  | > 100 µM (inactive) | > 100 µM (inactive) |
| CC(C)OC(=O)NNc1cccc(Cl)c1 | > 100 µM (inactive) | > 100 µM (inactive) | > 100 µM (inactive) | > 100 | > 100 µM (inactive) | 65.8 µM (inactive) | > 100 µM (inactive) | > 100 µM (inactive) | > 100 µM (inactive) | > 100 µM (inactive) | > 100 µM (inactive) |  | > 100 µM (inactive) | > 100 µM (inactive) | > 100 µM (inactive) | > 100 µM (inactive) | > 100 µM (inactive) | > 100 µM (inactive) | > 100 µM (inactive) | > 100 µM (inactive) |
| N#Cc1nc(-c2ccc(-c3nc(C#N)c(N)o3)cc2)oc1N | > 10 µM (inactive) | > 10 µM (inactive) | > 10 µM (inactive) | > 10 | > 10 µM (inactive) | > 10 µM (inactive) | > 10 µM (inactive) | > 10 µM (inactive) | > 10 µM (inactive) | > 10 µM (inactive) |  | > 10 µM (inactive) | > 10 µM (inactive) | > 10 µM (inactive) | > 10 µM (inactive) | > 10 µM (inactive) | > 10 µM (inactive) | > 10 µM (inactive) | > 10 µM (inactive) | > 10 µM (inactive) |
| CO/N=C(/C(=O)OC)c1ccccc1COc1ccccc1C(F)(F)F | 43.6 µM (inactive) | 13 µM (inactive) | 37 µM (inactive) | 33.3 | 30.2 µM (inactive) |  | 39.4 µM (inactive) | 80.9 µM (inactive) | 28.1 µM (inactive) | 29.3 µM (inactive) | 23.8 µM (inactive) | 7.21 µM (inactive) | 20.3 µM (inactive) | 37.8 µM (inactive) | 61.8 µM (inactive) | 98.2 µM (inactive) |  |  | 25.2 µM (inactive) | 16.6 µM (inactive) |
